Literature values, collected in patent US20240398764A1, “METHODS OF TREATING DISEASES ASSOCIATED WITH SENESCENT CELL ACCUMULATION” (University of Florida Research Foundation, Incorporated, priority 2021, published 2024).

How the values were obtained:
[1] = tested on: platelets; details: literature statement; cited from earlier work
[2] = tested on: SnCs; details: vs ABT263; cited from earlier work
[3] = tested on: platelets; details: vs ABT263; cited from earlier work

Structure (SMILES) | Platelet apoptosis / thrombocytopenia [1] | Potency against SnCs compared with ABT263 [2] | Toxicity to platelets compared with ABT263 [3]
CC1(C)CCC(c2ccc(Cl)cc2)=C(CN2CCN(c3ccc(C(=O)NS(=O)(=O)c4ccc(N[C@H](CCN5CCOCC5)CSc5ccccc5)c(S(=O)(=O)C(F)(F)F)c4)cc3)CC2)C1 [ABT263] | induces platelet apoptosis and results in severe thrombocytopenia |  | 
CC1(C)CCC(CN2CCN(c3ccc(C(=O)NS(=O)(=O)c4ccc(NCC5CCOCC5)c([N+](=O)[O-])c4)c(Oc4cnc5[nH]ccc5c4)c3)CC2)=C(c2ccc(Cl)cc2)C1 [ABT199] | does not induce thrombocytopenia |  | 
CC1(C)CCC(c2ccc(Cl)cc2)=C(CN2CCN(c3ccc(C(=O)NS(=O)(=O)c4ccc(N[C@H](CCN5CCN(C(=O)CCCn6cc(COCCOCCNc7cccc8c7C(=O)N(C7CCC(=O)NC7=O)C8=O)nn6)CC5)CSc5ccccc5)c(S(=O)(=O)C(F)(F)F)c4)cc3)CC2)C1 (stereo partly shown) [PZ15227] |  | equally or slightly more potent against SnCs | less toxic to platelets
